row,melting point [°C],SMILES
1,110,CCN(C(=O)Oc1cccc(NC(=O)OC(C)C)c1)c1ccccc1
2,188,O=C(O)c1ccccc1-c1cccnc1
3,202,CCOC(=O)c1ncn2c1CN(C)C(=O)c1cc(F)ccc1-2
4,87 to 91,OCC(F)(F)C(F)(F)C(F)(F)C(F)(F)C(F)(F)C(F)(F)C(F)(F)C(F)(F)C(F)(F)F
5,246,O=C(O)c1cc([N+](=O)[O-])cnc1O
6,187,CC1=C(C)C2=CC=C3C(O)=C(CC(C)O)C(=O)C(O)=C3C2(C)CC1=O (stereo unspecified)
7,255,CC1(c2ccc([N+](=O)[O-])cc2)Nn2c(nnc2C(F)(F)F)S1 (stereo unspecified)
8,-38,CCCCCCCCCCC(C)CC (stereo unspecified)
9,105,O=Cc1cccc2c(Br)cccc12
10,-45,CCC1COC(=O)O1 (stereo unspecified)
11,194,CCOC(=O)NNC(=O)Nc1ccc(Cl)cc1
12,52,CCOc1cc(C=O)ccc1OC
13,123,CCOc1cc(C(=S)N2CCCCC2)ccc1O
14,186 to 187,Cn1nc(-c2ccccc2)cc1C(=O)O
15,118,CCC(C=C1C(=O)C2(C)CCC1C2(C)C)C(=O)O (stereo unspecified)
16,105 to 106,O=C(c1cccc2ccccc12)C(O)c1ccccc1 (stereo unspecified)
17,370,Cn1cnc2[nH]c(N)nc(=O)c21
18,167 to 168,N#Cc1cc([N+](=O)[O-])ccc1Sc1ccc(Cl)cc1
19,40 to 42,Brc1nc2ccccc2s1
20,101,O=C(O)Cc1c(F)cccc1F
21,227 to 229,"CC1(C)C2CCC(C2)C12COC(=O)N2 (single isomer, unassigned; (-))"
22,125,Cc1ccc(C)n1-c1ccccc1C(=O)O

row,melting point [°C],SMILES
1,279,O=C(Nc1ccc(-c2ccc(NC(=O)c3ccccc3)cc2NC(=O)c2ccccc2)c(NC(=O)c2ccccc2)c1)c1ccccc1
2,97,Nc1cc(Cl)cc(Cl)c1O
3,164 to 167,CCOC(=O)CCC(C)C1CCC2C3C(O)C(Br)C4CC(OC(C)=O)CCC4(C)C3CC(OC(C)=O)C12C (stereo unspecified)
4,128 to 132,CC(=O)C1CCC2C3CCC4=CC(=O)CCC4(C)C3CCC12C (stereo unspecified)
5,34,O=C(O)C(F)(F)C(F)(F)C(F)(F)C(F)(F)C(F)(F)C(F)F
6,41 to 43,CSc1ccc(Oc2ccc(C(F)(F)F)cc2[N+](=O)[O-])cc1
7,-70,CCO[Si](CCCN)(OCC)OCC
8,33 to 35,Nc1cc(C(F)(F)F)ccc1N1CCCC1
9,42,Cc1onc(-c2ccccc2Cl)c1C(=O)Cl
10,27,SCc1ccc(Br)cc1
11,72 to 75,Cc1nc(-c2ccccc2)c(C=O)s1
12,162 to 170,CC(CCC(O)(c1ccccc1)c1ccccc1)C1CCC2C3C(O)CC4CC(O)CCC4(C)C3CC(O)C12C (stereo unspecified)
13,95,O=C1OC(=O)c2c(F)c(F)c(F)c(F)c21
14,214,CN1CCN(C(=O)CC(c2ccc(Cl)cc2)(c2ccc(Cl)cc2)c2ccc(Cl)cc2)CC1
15,69 to 74,"OCC1OC(c2ccccc2)OC1CO (single isomer, unassigned; (+))"
16,187 to 191,NNC(=O)C1CC1C(=O)NN (stereo unspecified)
17,342,CCOC(=O)C1=C(C)N=c2cc3c(cc21)=C(C(=O)OCC)C(C)=N3
18,85 to 87,O=C(CBr)c1cc(-c2ccc(Cl)cc2Cl)no1
19,213,Cn1c(=O)c(C2=NNC(=O)C2=NNc2ccccc2)c(O)c2ccccc21
20,46 to 48,Ic1ccccc1CN1CCOCC1
21,124 to 126,CCOC(=O)NC(=S)Nc1ncccc1C
22,91,CC(=O)C(C(C)=O)=C1SCCCS1

row,SMILES,melting point [°C]
1,CN(C)Cc1c[nH]c2ccccc12,138
2,CNC(C)Cc1ccc(O)cc1 (stereo unspecified),161
